Results as given in PMC10485906, “Development of a Dihydroquinoline–Pyrazoline GluN2C/2D-Selective Negative Allosteric Modulator of the N-Methyl-D-aspartate Receptor” (ACS Chemical Neuroscience, 2023).
Read-outs that look alike come from different tables or passages of the source.

Experiments:
GluN1/GluN2C [1] = target: GluN1/GluN2C (Rattus norvegicus, UniProt P35439+Q00961); assay: Whole-cell voltage-clamp recordings, HEK cells, GluN1/GluN2C (agonist dependence); type: cell-based; details: for IC50: inhibitor and glycine preapplied
Procedure: (§1) We also evaluated the mechanism of inhibition of GluN1/GluN2C expressed in HEK cells preincubated with glycine for inhibitor 2i (DQP-997-74) by comparing inhibitor potency during the peak and steady-state current responses to glutamate application. […] The deactivation of GluN1/GluN2C receptors (0.53 ± 0.07 s) was slowed by the presence of compound 2i when applied at concentrations of 1 μM (1.3 ± 0.14 s; p = 0.001) and 3 μM (2.3 ± 0.40 s; p < 0.0001) but not at 0.1 μM (0.61 ± 0.07 s; p = 0.965) and 0.3 μM (0.88 ± 0.13 s; p = 0.115; Figure S2).
(§2) HEK293 cells (HEK, ATCC CRL-1573) were plated on glass coverslips pretreated with 0.1 mg/mL poly-D-lysine and cultured in Dulbecco’s modified Eagle medium (DMEM) plus Glutamax (GIBCO 10569-10) supplemented with 10% fetal bovine serum, 10 U/mL of penicillin, and 10 μg/mL of streptomycin at 37 °C and 5% CO2. The cells were transiently transfected with cDNA encoding rat GluN1, GluN2D, and eGFP at a ratio of 1:1:5 by using the calcium phosphate precipitation method.[48] After 24–48 h following the transfection, the cells were perfused with external recording solution that contained (in mM) 3 KCl, 150 NaCl, 0.01 EDTA, 1.0 CaCl2, 10 HEPES, and 22 D-mannitol (the pH was adjusted to 7.4 with NaOH). The patch electrodes (resistance 3–5 MΩ) were prepared from thin-walled glass micropipettes (TW150F-4, World Precision Instruments, Sarasota, FL) by a dual-stage glass micropipette puller (PC-10, Narishige, Tokyo, Japan) and filled with internal solution containing (in mM) 110 D-gluconate, 110 CsOH, 30 CsCl, 5 HEPES, 4 NaCl, 0.5 CaCl2, 2 MgCl2, 5 BAPTA, 2 NaATP, and 0.3 NaGTP. The pH was adjusted to 7.4 with CsOH; osmolality was adjusted to about 300–305 mOsmol/kg. The whole-cell current responses were evoked by application of maximally effectively concentrations of agonists (100 μM glutamate and 30 μM glycine) at a holding potential of −60 mV and recorded using an Axopatch 200B patch-clamp amplifier (Molecular Devices, Union City, CA). A two-barreled theta-glass micropipette was used for rapid solution exchange controlled by a piezoelectric translator (Burleigh Instruments, Newton, NJ). For some experiments, 500 μM NMDA and 250 μM glycine were briefly applied by pressure application from a patch pipette (tip 3–5 MΩ). The current responses were low pass filtered at 2 kHz 8-pole Bessel filter (−3 dB; Frequency Devices) and digitized at 20 kHz using Digidata 1440A acquisition system (Molecular Devices) controlled by Clampex 10.3 (Molecular Devices). All patch experiments were performed at room temperature (23 °C).
(§3) Confidence intervals were determined for the log(IC50). The time course of relaxation during inhibitor application or deactivation following rapid removal of NMDA or glutamate was fitted by the equation [drawing 5] 2 […]
(§4) μM), which is consistent with increased inhibitor potency late in the stimulus train after agonist is bound. […]
(§5) inhibition of recombinant GluN1/GluN2C receptors expressed in HEK cells. GluN1/GluN2C current responses were recorded to glutamate with pre-applied glycine and compound 2i or control (pre-applied glycine and vehicle, 0.1% DMSO; see Figure S2A). The concentration-response curves show peak and steady-state responses normalized to control (Figure S2B). A linear relationship exists between 1/τinhibition and compound 2i concentration from which kON and kOFF can be calculated (see Results, Figure S2C). The deactivation time course following rapid glutamate removal was expanded to show the slowing of receptor deactivation (τdeactivation) by compound 2i (Figure S2D). τdeactivation for individual cells as well as the mean ± SEM are plotted and data were compared by mixed effects model (F (4, 17) = 22.60, p<0.0001; asterisks indicate statistically significant differences, see Results for p -values).
(§6) 2013) and the whole cell current recordings from HEK cells of GluN1/GluN2D responses to glutamate with pre-applied (S)-2a or vehicle (0.1% DMSO). The IC50 for (S)-2a 33 (Figure S3) was 4-fold higher […]

GluN1/GluN2C [2] = target: GluN1/GluN2C (Rattus norvegicus, UniProt Q00961); assay: as above; type: cell-based
Procedure: as §1, §2, §3, §4, §5, §6

hGluA3-L531Y = assay: Off-target, oocytes, GluA3; type: cell-based, human; details: 1 µM compound; 100 µM glutamate
Procedure: Analysis of Off-target Actions
Compound (S)-(-)-2i was tested at 1 µM for actions at glycine-activated GluN1/GluN3A (human GluN1-F484A,T518L/GluN3A referred to a GluN1-FA,TL/GluN3A) and rat GluN1-4a/GluN3B in the presence of 0.5 µM CGP-78608. cRNA injection ratios for GluN1/GluN3 were 1:2. Compound (S)-(-)- 2i was also tested for actions at AMPA (rat GluA1, rat GluA2, human GluA3-L531Y), kainate (rat GluK2), nicotinic acetylcholine (rat α7 and α4β2, cRNA ratio 1:1), GABAA (rat α1β2γ2S, cRNA ratio 1:1:1), GABAC (rat ρ1), glycine (rat α1), and purinergic (human P2X) receptors expressed in Xenopus oocytes. cRNA encoding the receptor subunits was synthesized from linear template cDNA using the mMessage mMachine kit (Ambion). Oocytes were injected with 1-5 ng cRNA in a 50 nL volume and incubated in Barth's solution at 15°C for 2-5 days prior to recording. GluK2-expressing oocyte were incubated in 1 mg/ml (10 µM) concanavalin-A for 10 min prior to recording. The cDNAs encoding GABAC and glycine subunits were provided by Dr. D. Weiss (University of Texas Health Science Center at San Antonio). cDNAs encoding nicotinic acetylcholine receptor subunits were provided by Drs. […]
GABA. […] Responses in presence of test compound were expressed as a percent of control. […]

[3] = HEK293, linear regression of 1/τinhibition vs concentration

Sequence of GluN1/GluN2C (Rattus norvegicus, UniProt Q00961) (Q00961 20-1237, other chains not shown): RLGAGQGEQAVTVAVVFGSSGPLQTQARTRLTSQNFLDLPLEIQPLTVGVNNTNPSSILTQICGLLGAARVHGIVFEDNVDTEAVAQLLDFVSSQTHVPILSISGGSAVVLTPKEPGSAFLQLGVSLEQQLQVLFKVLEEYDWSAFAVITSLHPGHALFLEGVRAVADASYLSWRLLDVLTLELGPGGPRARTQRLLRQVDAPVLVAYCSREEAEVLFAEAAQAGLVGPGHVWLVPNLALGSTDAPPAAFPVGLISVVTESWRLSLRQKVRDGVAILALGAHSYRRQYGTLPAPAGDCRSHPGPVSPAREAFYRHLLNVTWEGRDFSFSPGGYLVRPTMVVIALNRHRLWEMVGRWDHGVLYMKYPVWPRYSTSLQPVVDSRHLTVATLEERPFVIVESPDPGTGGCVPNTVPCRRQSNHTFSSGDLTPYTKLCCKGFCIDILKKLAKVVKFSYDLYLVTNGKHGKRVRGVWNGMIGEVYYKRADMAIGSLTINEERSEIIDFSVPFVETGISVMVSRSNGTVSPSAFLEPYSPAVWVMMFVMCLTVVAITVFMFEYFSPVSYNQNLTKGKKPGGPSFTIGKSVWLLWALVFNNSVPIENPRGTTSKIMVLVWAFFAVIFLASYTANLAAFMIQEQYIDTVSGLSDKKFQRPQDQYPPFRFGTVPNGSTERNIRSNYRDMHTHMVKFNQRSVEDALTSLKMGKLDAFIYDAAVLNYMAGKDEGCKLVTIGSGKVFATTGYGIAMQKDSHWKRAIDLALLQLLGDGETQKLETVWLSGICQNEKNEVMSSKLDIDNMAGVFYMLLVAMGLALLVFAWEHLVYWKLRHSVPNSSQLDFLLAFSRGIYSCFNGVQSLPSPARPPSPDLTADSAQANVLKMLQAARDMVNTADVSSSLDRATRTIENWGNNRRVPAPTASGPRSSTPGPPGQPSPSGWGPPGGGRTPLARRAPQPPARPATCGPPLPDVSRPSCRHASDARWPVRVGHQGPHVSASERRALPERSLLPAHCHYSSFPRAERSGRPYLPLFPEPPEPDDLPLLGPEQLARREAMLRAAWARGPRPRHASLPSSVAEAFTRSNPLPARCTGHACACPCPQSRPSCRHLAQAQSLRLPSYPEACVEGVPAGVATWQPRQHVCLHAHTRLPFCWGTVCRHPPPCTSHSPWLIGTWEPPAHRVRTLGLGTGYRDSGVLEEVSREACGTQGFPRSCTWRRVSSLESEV
Sequence of GluN1/GluN2C (Rattus norvegicus, UniProt P35439+Q00961) (Q00961 20-1237, other chains not shown): as above

Structure (SMILES)	koff (GluN1/GluN2C [1]; [3]) [s⁻¹]	kon (GluN1/GluN2C [1]; [3]) [M⁻¹ s⁻¹]	Kd (GluN1/GluN2C [1]; from kON and kOFF) [nM]	IC50 (GluN1/GluN2C [1]; read-out: IC50 peak current responses) [nM]	IC50 (GluN1/GluN2C [1]; read-out: IC50 steady-state responses) [nM]	deactivation of GluN1/GluN2C receptors (GluN1/GluN2C [2]; 0.1 μM compound) [s]	deactivation of GluN1/GluN2C receptors (GluN1/GluN2C [2]; 0.3 μM compound) [s]	deactivation of GluN1/GluN2C receptors (GluN1/GluN2C [2]; 1 μM compound) [s]	deactivation of GluN1/GluN2C receptors (GluN1/GluN2C [2]; 3 μM compound) [s]	% control hGluA3-L531Y (hGluA3-L531Y) [%]
O=C(O)CC(F)(F)C(=O)N1N=C(c2c(-c3ccc(Cl)cc3)c3ccccc3[nH]c2=O)CC1c1ccc(Cl)cc1 (stereo not shown) [2i]	0.27	800000	330	5000	250	0.61 ± 0.07	0.88 ± 0.13	1.3 ± 0.14	2.3 ± 0.40	
O=C(O)CC(F)(F)C(=O)N1N=C(c2c(-c3ccc(Cl)cc3)c3ccccc3[nH]c2=O)C[C@H]1c1ccc(Cl)cc1 [(S)-(−)-2i]										105 ± 1.2
